Measured values: patent US11390543B2, “Sterilization method” (NEWSOUTH INNOVATIONS PTY LIMITED, priority 2017, dated 2022)
Where “and” joins values, the source holds several entries; their conditions need not be identical. Equal values may be shown once. Read-outs that look alike come from different tables or passages of the source.

How the values were obtained:
[1] = tested on: Escherichia coli C-3000 (ATCC15597); assay: E. coli inactivation by bubbling gas through 0.17 M NaCl solution in bubble column evaporator, plaque assay; format: cell-based
[2] = tested on: MS2 bacteriophage (ATCC 15597-B1); assay: MS2 virus inactivation by bubbling gas through 0.17 M NaCl solution in bubble column evaporator, double layer plaque assay; format: cell-based; conditions: for MS2 virus inactivation, log reduction: inlet gas temperature 200° C., after 37.5 min; for MS2 virus log reduction: as time approached 10 mins
Protocol: MS2 bacteriophage (ATCC 15597-B1) was chosen as the model virus to evaluate the efficiency of methods of inactivation of viruses. MS2 is usually quantified by counting infectious units via a standard plaque assay that is commonly used for detection of MS2 in treated drinking water and waste-water.
Analysis of virus inactivation was carried out using the optimized Double Layer Plaque Assay technique described in Cormier et al, that detects only infectious viruses by using E. coli as their host.
A specific optimized Double Layer Plaque Assay technique as described in Cormier et al was used to assess the concentration of active MS2 viruses. This plaque assay method is commonly used for detection of MS2 in treated drinking water, wastewater and marine water. The water quality is assessed based on the ability of bacteriophages to kill the host bacteria and allow phages to propagate in a confluent lawn of bacterial host cells immobilized in a layer of agar.
A freeze-dried vial of MS2 bacteriophage was acquired from the American Type Culture Collection. Bacteriophage MS2 (ATCC 15597-B1) was replicated using Escherichia coli C-3000 (ATCC 15597) according to the International Standard ISO 10705-1 [31] and the Ultraviolet disinfection guidance manual of the United States Environmental Protection Agency. The zeta-potential of the MS2 viruses in 0.17 M NaCl solution with different gas bubbles was measured using a Malvern Zetasizer nano series instrument.
The gases were pumped through the electrical heater that maintained the gas temperature just above the sinter surface at the base of the bubble column evaporator at a particular temperature, depending on the experiment. The base of the bubble column evaporator was fitted with a 40-100 μm pore size glass sinter (type 2) of 135 mm diameter.
Once the aqueous solution was poured into the column, the temperature of the solution was measured with a thermocouple in the centre of the column solution. The gas was then passed through the sinter into the 300 ml solution to inactivate MS2 viruses or E. coli (in separate experiments). […]
Further experiments were also performed using MS2 virus in a 0.17 M NaCl solution (initial temperature of about 22° C.) in the BCE, with CO2 gas at different inlet temperatures (205° C., 150° C., 100° C., 11° C. and 20° C.) and with CO2 gas having an inlet temperature of 22° C. at different flow rates (27 l/min and 20 l/min).
Once the solutions with known concentration of coliphage and E. coli were prepared, experiments were conducted to study the inactivation of the coliphage with different gases and inlet gas temperatures. 1.3 ml samples were collected from 10 to 15 mm above the central area of the sinter every 6 minutes during 36 minutes for the virus experiments and every 2 min for the E. coli experiments. 0.07 ml of each sample was spotted in triplicate following the double layer plaque assay technique.
Plaque counts were performed for all 18-21 plates of each of the experiments. The mean and the standard deviation of each triplicated sample using a virus or bacteria survival factor: Log10(PFU/PFU0), where PFU0 is the initial number of PFU per sample and PFU is the PFU per sample after an exposure time in minutes. When plotted, a second order polynomial distribution was applied to fit the survival curves.

E. coli [3] = conditions: pH 4.2, stirred beaker, […] NaCl, 22° C., no bubbling
Protocol: (§1) To evaluate the effect of solution pH on the inactivation of MS2 bacteriophage and E. coli experiments, comparison tests using 0.17 M NaCl solution at pH 4.1, were carried out in a separate beaker, in a water bath. During these experiments, samples were regularly taken out from the beaker and analysed as before.
(§2) To determine if the reduction in pH, due to dissolved CO2 (equations 1, 2, 3 and 4), was related to its disinfectant effects, two experiments with carbonic acid (H2CO3) at pH 4.2 were conducted in a continuous stirred beaker, one for viruses and another one for bacteria.
(§3) Carbonic acid (H2CO3) was produced by bubbling 27 l/min. of pure CO2 through the 0.17 M NaCl solution during 10 minutes at 22° C. […] Some authors describe a small, low pH inactivation effect on microbial cells, since membranes stop protons from penetration but low pH makes membrane more permeable to other substances like CO2 due to the chemical modification on the phospholipid bilayer of membranes.

MS2 bacteriophage = conditions: pH 4.2, stirred beaker, […] NaCl, 22° C., no bubbling
Protocol: as §1, §2, §3

[4] = cited from earlier work
[5] = pH of the solution measured during bubbling experiments; format: physicochemical; conditions: for pH: […] NaCl
Protocol: The solubility at 52° C. (for viruses) and 43° C. (for E. coli) of the different gases used were obtained from literature values (http://www.engineeringtoolbox.com). The pH values were measured during the experiments and the Zeta potential values were measured during the experiments at a virus concentration of 10^8 per ml and E. coli concentration of 10^7 per ml.

MS2 virus = conditions: 1 to 2 M of NaCl; cited from earlier work
E. coli [6] = conditions: cited from earlier work
[7] = inlet gas temperature 150° C., after 10 min
[8] = in water at 43° C., 1 atm (E. coli section)
[9] = in water at 52° C., 1 atm (virus section)
[10] = E. coli experiments, gases at 150° C. (combustion gas 58° C.)
[11] = MS2 experiments, gases at 200° C. (combustion gas 60° C.)

Which results are given for `N#N` [Nitrogen]?
E. coli inactivation, log reduction [1, 7]: 1.74 log and 1.5 log; MS2 virus inactivation, log reduction [2]: 1.5 log

Which “E. coli log removal” value (E. coli [3]) does the source give for `O=C(O)O` [Carbonic acid (H2CO3), Carbonic acid] here?
Its value is 0.08 log.

And the log virus reduction (MS2 bacteriophage)?
Its log virus reduction is 0.002 log.

For `O=O` [Oxygen], which Solubility [4, 8] is on record?
Its Solubility is 0.030 Grams dissolved in 1 Kg of wat.

And the Solubility [4, 9]?
The Solubility was 0.027 Grams dissolved in 1 Kg of wat.

And the E. coli reduction ([1]; oxygen at 150° C. inlet gas temperature as printed)?
The E. coli reduction was 0.65 log.

What about the “E. coli inactivation, log reduction” value ([1]; oxygen bubbles at 150° C., after 3.5 minutes) of the same compound?
Its value is 2.90 log.

What about the pH [5, 10] of the same compound?
Its pH is 6.1.

What about the pH [5, 11] of the same compound?
The pH was 6.

What about the “MS2 virus inactivation, log reduction” value [2] of the same compound?
Its value is 1.5 log.

For `[Ar]` [Argon], which Solubility [4, 8] is on record?
Its Solubility is 0.040 Grams dissolved in 1 Kg of wat.

What about the Solubility [4, 9] of the same compound?
Its Solubility is 0.035 Grams dissolved in 1 Kg of wat.

And the “E. coli inactivation, log reduction” value [1, 7]?
The value was 0.40 log.

What about the pH [5, 10] of the same compound?
The pH was 6.0.

And the pH [5, 11]?
Its pH is 6.0.

What about the “MS2 virus inactivation, log reduction” value [2] of the same compound?
The value was 1.5 log.

With `[Cl-].[Na+]` [NaCl] as the compound, how does the “stability of MS2 virus in the presence of NaCl” value (MS2 virus) read?
The value was “stable”.

What about the “inactivation of E. coli by NaCl solutions” value (E. coli [6]) of the same compound?
The value was “do not inactivate E. coli”.

Which Solubility [4, 8] does the source give for `O=C=O` [Carbon dioxide] here?
Its Solubility is 0.950 Grams dissolved in 1 Kg of wat.

What about the Solubility [4, 9] of the same compound?
The Solubility was 0.800 Grams dissolved in 1 Kg of wat.

What about the “E. coli inactivation, log reduction” value ([1]; inlet gas temperature 150° C., after 10 min, listed as CO2) of the same compound?
The value was 2.84 log and 2.6 log.

And the pH [5, 10]?
The pH was 4.0.

And the pH [5, 11]?
The pH was 4.0.

What about the “pH of the water when using CO2 gas in the bubble column” value ([5]; dropped from 5.9 in less than 45 seconds) of the same compound?
Its value is 4.2.

And the MS2 virus log-reduction ([2]; 150° C. inlet CO2 temperature, after 7 min)?
The MS2 virus log-reduction was 2.3 log.

And the MS2 virus log-reduction ([2]; CO2 11° C. inlet temperature, 9° C. column temperature, after 6.5 minutes)?
Its MS2 virus log-reduction is 0.1 log.

And the “MS2 virus inactivation rate” value ([2]; CO2 (100%) at 200° C., in 3.5 minutes)?
Its value is 2.7 log.

What about the MS2 virus log-reduction ([2]; CO2 at 22° C., 20 l/min, after 2 minutes) of the same compound?
Its MS2 virus log-reduction is 0.35 log.

And the “MS2 virus log reduction” value ([2]; CO2 at 22° C., 20 l/min)?
Its value is “about 1 log”.

What about the MS2 virus log-reduction ([2]; CO2 at 22° C., 27 l/min, after 2 minutes) of the same compound?
Its MS2 virus log-reduction is 0.62 log.

And the “MS2 virus log reduction” value ([2]; CO2 at 22° C., 27 l/min)?
The value was “about 1 log”.

And the MS2 virus log-reduction ([2]; CO2 at 200° C., after 3 min)?
Its MS2 virus log-reduction is 3 log.

What about the “MS2 virus log inactivation” value ([2]; CO2 at 200° C., within 5 min) of the same compound?
Its value is 2.0 log.

What about the MS2 virus reduction ([2]; CO2 bubbles at room temperature, 10 min) of the same compound?
The MS2 virus reduction was 1 log.
